Publication PMC9551276, “Design, synthesis and biological evaluation of novel orthosteric-allosteric ligands of the cannabinoid receptor type 2 (CB2R)” (Frontiers in Chemistry, 2022)
Where “and” joins values, the source holds several entries; their conditions need not be identical. Identical values can stand only once.

How the values were obtained:
hCB2R [1] = target: T1, hCB2R (Homo sapiens, UniProt P34972); experiment: DiscoveRx HitHunter inhibition of FSK-stimulated cAMP accumulation; assay type: cell-based
T1 sequence (P34972 whole entry): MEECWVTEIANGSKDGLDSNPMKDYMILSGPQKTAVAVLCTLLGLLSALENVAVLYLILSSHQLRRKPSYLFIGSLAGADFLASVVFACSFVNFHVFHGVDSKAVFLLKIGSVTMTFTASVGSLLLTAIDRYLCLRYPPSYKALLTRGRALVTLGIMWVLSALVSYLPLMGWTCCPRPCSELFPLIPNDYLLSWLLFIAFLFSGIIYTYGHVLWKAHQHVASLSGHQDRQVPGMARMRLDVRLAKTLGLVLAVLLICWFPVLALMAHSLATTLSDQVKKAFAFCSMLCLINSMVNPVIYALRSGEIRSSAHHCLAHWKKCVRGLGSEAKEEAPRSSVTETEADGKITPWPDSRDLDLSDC
Description: Inhibition of FSK-stimulated cAMP accumulation was measured using the DiscoveRx HitHunter assay.

hCB2R [2] = target: T1, hCB2R; experiment: DiscoveRx PathHunter βarrestin2 recruitment; assay type: cell-based
Description: βarrestin2 recruitment was quantified using the DiscoveRx PathHunter® assay. […] Detection solution was added to cells (DiscoveRx), and cells were incubated for 60 min at room temperature. Chemiluminescence was measured on a Cytation5 plate reader (top read, gain 200, integration time 10,000 ms).

hCB1R = target: T2, hCB1R (Homo sapiens, UniProt P21554); experiment: [3H]CP55,940 radioligand displacement, CHO-K1 hCB1R membranes; assay type: binding; details: % [3H]CP55,940 bound, 1 nM radioligand, 2 h
T2 construct: expressed in transfected cells; host or cells: CHO-K1 (ATCC CCL-61) stably expressing hCB1R; membranes
T2 sequence (P21554 whole entry): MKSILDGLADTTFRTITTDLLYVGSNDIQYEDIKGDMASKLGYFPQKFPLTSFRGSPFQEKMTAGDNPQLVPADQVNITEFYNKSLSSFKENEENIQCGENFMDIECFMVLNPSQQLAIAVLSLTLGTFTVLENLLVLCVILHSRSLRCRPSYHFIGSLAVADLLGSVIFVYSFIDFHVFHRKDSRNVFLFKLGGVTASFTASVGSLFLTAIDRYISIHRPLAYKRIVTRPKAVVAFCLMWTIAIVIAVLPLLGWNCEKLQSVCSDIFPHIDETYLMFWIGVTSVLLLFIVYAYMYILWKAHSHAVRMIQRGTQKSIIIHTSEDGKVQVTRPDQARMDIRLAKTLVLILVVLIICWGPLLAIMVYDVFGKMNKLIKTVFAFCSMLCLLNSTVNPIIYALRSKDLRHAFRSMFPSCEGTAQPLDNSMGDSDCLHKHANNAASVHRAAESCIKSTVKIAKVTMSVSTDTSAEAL
Description: (§1) CHO-K1 cells were thawed, diluted in Tris buffer (50 mM Tris [pH 7.4]) and homogenized in a 1 ml hand-held homogenizer. hCB1R and hCB2R CHO-K1 cell membranes were collected by cavitation in a pressure cell, and sedimented by ultracentrifugation. Pellets were resuspended in TME buffer (50 mM Tris, 5 mM MgCl2, 1 mM EDTA [pH 7.4]), and protein concentration was measured via the Bradford method according to the manufacturer’s directions (Bio-Rad Laboratories, Mississauga, ON). […] Radioligand binding began with the addition of CHO-K1 cell membranes (25 µg protein per sample). Assays were performed for 120 min at 37°C and stopped by the addition of ice-cold Tris binding buffer (pH 7.4), followed by vacuum filtration using a 24-well sampling manifold (Brandel Cell Harvester; Brandel Inc., Gaithersburg, MD, United States ). Brandel GF/B filter paper was soaked with wash buffer at 4 °C for at least 24 h. Each filter paper was washed 6 times with a 1.2 ml aliquot of Tris-binding buffer (pH 7.4), then air-dried and submerged in 5 ml of scintillation fluid (Ultima Gold XR, PerkinElmer). Liquid scintillation spectrometry was used to quantify radioactivity.

hCB2R [3] = target: T1, hCB2R; experiment: [3H]CP55,940 radioligand displacement, CHO-K1 hCB2R membranes; assay type: binding; details: for hCB2R E min (% CP55,940) ± S.E.M: % [3H]CP55,940 bound, 1 nM radioligand, 2 h; for Effect on [3H]CP55,940 bound to hCB2R: [3H]CP55,940 displacement
Description: as §1, with “Assays were performed for 120 min at 37°C and stopped by the addition of ice-cold Tris binding buffer (pH 7.4), followed by vacuum filtration using a 24-well sampling manifold (Brandel Cell Harvester; Brandel Inc., Gaithersburg, MD, United States ).” left out

[4] = system: human microglial cells (HMC3); experiment: IL-6 and IL-10 release (ELISA) in LPS/TNFα-stimulated HMC3 cells; assay type: cell-based
Description: The concentrations of pro-inflammatory (IL-6) and anti-inflammatory (IL-10) interleukins were determined by performing specific ELISA assays (MyBioSource, San Diego, CA, United States ) on collected culture media. Human microglial cells (HMC3) were exposed to pretreatment with test compounds for 1 h followed by stimulation with LPS (10 μg/ml)/TNFα (50 ng/ml) for 24 h. In competition experiments, the CB2R antagonist (SR144528, 1 μM) or the CB2R positive allosteric modulator (EC21a 1 or 10 μM) were administered 15 min before agonist administration.

[5] = CHO-K1 hCB2R, 10 µM FSK, 90 min
[6] = CHO-K1 hCB2R, 10 µM FSK, 90 min, read-out: Inhibition of cAMP EC50 (95% C.I.)
[7] = CHO-K1 hCB2R, 90 min, read-out: βarrestin2 recruitment EC50 (95% C.I.)

SMILES | Inhibition of cAMP E max (% CP55,940) ± S.E.M (hCB2R [1]; [5]) | EC50 (hCB2R [1]; [6]) [nM] | βarrestin2 recruitment E max (% CP55,940) ± S.E.M (hCB2R [2]; CHO-K1 hCB2R, 90 min) | EC50 (hCB2R [2]; [7]) [nM] | melting point | EC50 (hCB2R [1]) [nM] | EC50 (hCB2R [2]) [nM] | Response in inhibition of FSK-stimulated cAMP accumulation (hCB2R [1]; CHO-K1 hCB2R) | EC50 (hCB2R [1]; Inhibition of cAMP EC50 (95% C.I.), CHO-K1 hCB2R, 10 µM FSK, 90 min) [nM] | EC50 (hCB2R [1]; Inhibition of cAMP EC50 (95% C.I.), co-administration, EC21a concentration-response in the presence of 10 nM LV62, 10 µM FSK, 90 min) [nM] | Response in βarrestin2 recruitment (hCB2R [2]; CHO-K1 hCB2R) | hCB1R E min (% CP55,940) ± S.E.M (hCB1R) | IC50 (hCB2R [3]) [nM] | hCB2R E min (% CP55,940) ± S.E.M (hCB2R [3]) | Effect on [3H]CP55,940 bound to hCB2R (hCB2R [3]) | Effect of co-administered EC21a on JR64a anti-inflammatory activity (IL-6 release) ([4]; EC21a at equimolar or higher doses, LPS/TNFα) | Effect of equimolar EC21a on LV62 anti-inflammatory activity ([4]; LV62 1 or 10 μM with EC21a 1:1, LPS/TNFα 24 h)
Cc1c(Br)cn(Cc2cn(CCCCCn3c(=O)c(C(=O)NC4CCC(C)CC4)cc4cccnc43)nn2)c(=O)c1NC(=O)C1CCCCCC1 (stereo not shown) [JR26a, 1-(5-(4-((5-bromo-3-(cycloheptanecarboxamido)-4-methyl-2-oxopyridin-1(2H)-yl)methyl)-1H-1,2,3-triazol-1-yl)pentyl)-N-(4-methylcyclohexyl) -2-oxo-1,2-dihydro-1,8-naphthyridine-3-carboxamide] | 41 ± 5.1 % CP55,940 | 110 | 39 ± 6.1 % CP55,940 | > 10000 | 116 °C (dec.) |  |  |  |  |  |  |  |  |  |  |  | 
Cc1c(Br)cn(CCCc2cn(CCCCCn3c(=O)c(C(=O)NC4CCC(C)CC4)cc4cccnc43)nn2)c(=O)c1NC(=O)C1CCCCCC1 (stereo not shown) [JR22a, 1-(5-(4-(3-(5-bromo-3-(cycloheptanecarboxamido)-4-methyl-2-oxopyridin-1(2H)-yl)propyl)-1H-1,2,3-triazol-1-yl)pentyl)-N-(4-methylcyclohexyl)-2-oxo-1,2-dihydro-1,8-naphthyridine-3-carboxamide] | 38 ± 5.5 % CP55,940 |  | 33 ± 3.1 % CP55,940 |  | 114 °C (dec.) | 62 | > 10000 |  |  |  |  |  |  |  |  |  | 
Cc1c(Br)cn(CCOCCn2c(=O)c(C(=O)NC3CCC(C)CC3)cc3cccnc32)c(=O)c1NC(=O)C1CCCCCC1 (stereo not shown) [JR58a, 1-(2-(2-(5-bromo-3-(cycloheptanecarboxamido)-4-methyl-2-oxopyridin-1(2H)-yl)ethoxy)ethyl)-N-(4-methylcyclohexyl)-2-oxo-1,2-dihydro-1,8-naphthyridine-3-carboxamide] | 45 ± 2.9 % CP55,940 |  | 51 ± 2.8 % CP55,940 |  | 110 °C (dec.) | 270 | > 10000 |  |  |  |  |  |  |  |  |  | 
Cc1c(Br)cn(Cc2ccc(F)cc2)c(=O)c1NC(=O)C1CCCCCC1 [EC21a, reference compound] | 2.5 ± 0.53 % CP55,940 |  | 1.4 ± 0.96 % CP55,940 |  |  |  | > 10000 | no response was detected | > 10000 | 4.3 | no response was detected | 103 ± 2.5 % CP55,940 | 36 | 115 ± 7.9 % CP55,940 | increased | no effects on JR64a anti-inflammatory activity | enhanced LV62 anti-inflammatory activity
Cc1c(Br)cn(CCCCOCCCCn2c(=O)c(C(=O)NC3CCC(C)CC3)cc3cccnc32)c(=O)c1NC(=O)C1CCCCCC1 (stereo not shown) [JR60a, 1-(4-(4-(5-bromo-3-(cycloheptanecarboxamido)-4-methyl-2-oxopyridin-1(2H)-yl)butoxy)butyl)-N-(4-methylcyclohexyl)-2-oxo-1,2-dihydro-1,8-naphthyridine-3-carboxamide] | 46 ± 4.4 % CP55,940 |  | 36 ± 9.2 % CP55,940 |  | 118 °C (dec.) | 770 | > 10000 |  |  |  |  |  |  |  |  |  | 
Cc1c(Br)cn(CCCCCn2c(=O)c(C(=O)NC3CCC(C)CC3)cc3cccnc32)c(=O)c1NC(=O)C1CCCCCC1 (stereo not shown) [JR61a, 1-(5-(5-bromo-3-(cycloheptanecarboxamido)-4-methyl-2-oxopyridin-1(2H)-yl)pentyl)-N-(4-methylcyclohexyl)-2-oxo-1,2-dihydro-1,8-naphthyridine-3-carboxamide] | 46 ± 1.7 % CP55,940 |  | 34 ± 2.2 % CP55,940 |  | 118 °C (dec.) | 420 | > 10000 |  |  |  |  |  |  |  |  |  | 
Cc1c(Br)cn(CCCc2cn(CCCCC(=O)NC3CCC(NC(=O)c4cc5cccnc5n(Cc5ccc(F)cc5)c4=O)CC3)nn2)c(=O)c1NC(=O)C1CCCCCC1 (stereo not shown) [JR14a, N-(4-(5-(4-(3-(5-bromo-3-(cycloheptanecarboxamido)-4-methyl-2-oxopyridin-1(2H)-yl)propyl)-1H-1,2,3-triazol-1-yl)pentanamido)cyclohexyl)-1-(4-fluorobenzyl)-2-oxo-1,2-dihydro-1,8-naphthyridine-3-carboxamide] | 41 ± 5.7 % CP55,940 | 150 | 39 ± 0.93 % CP55,940 | 25 | 108 °C (dec.) |  |  | modest partial agonist activity |  |  |  | 98 ± 2.5 % CP55,940 | 1.8 | 59 ± 12.3 % CP55,940 |  |  | 
Cc1c(Br)cn(Cc2cn(CCCCC(=O)NC3CCC(NC(=O)c4cc5cccnc5n(Cc5ccc(F)cc5)c4=O)CC3)nn2)c(=O)c1NC(=O)C1CCCCCC1 (stereo not shown) [JR16a, N-(4-(5-(4-((5-bromo-3-(cycloheptanecarboxamido)-4-methyl-2-oxopyridin-1(2H)-yl)methyl)-1H-1,2,3-triazol-1-yl)pentanamido)cyclohexyl)-1-(4-fluorobenzyl)-2-oxo-1,2-dihydro-1,8-naphthyridine-3-carboxamide] | 36 ± 8.6 % CP55,940 | 350 | 27 ± 4.2 % CP55,940 |  | 113 °C (dec.) |  |  |  |  |  |  |  |  |  |  |  | 
CC1CCC(NC(=O)c2cc3cccnc3n(CCCCCO)c2=O)CC1 (stereo not shown) [LV62, reference compound] | 110 ± 8.8 % CP55,940 and 110 ± 5.3 % CP55,940 |  | 65 ± 1.4 % CP55,940 |  |  | 58 |  |  |  |  |  | 106 ± 3.6 % CP55,940 | 0.65 | 16 ± 11.9 % CP55,940 | fully displaced |  | 
